Assay results from patent US12415803B2, “Fused imidazopyridines as reversible inhibitors of Brutons Tyrosine Kinase (BTK)” (Merck Patent GmbH, priority 2018, dated 2025).

Columns and labels:
full-length human BTK = full-length human BTK (Homo sapiens (Human), UniProt Q06187); test: BTK IC50 Enzyme Assay (microfluidic off-chip mobility shift kinase assay); format: biochemical; details: Btk Enzymatic IC50 Assay, 90 min at 27 C;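 also: Read-out separates phosphorylated peptide product from substrate by their charge-to-mass difference, with IC50 fitted from log inhibitor concentration against percent enzyme activity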
Btk [1] = target: T1, Btk (Homo sapiens (Human), UniProt Q06187); test: Time Dependent Human Whole Blood IC50 Assay; format: cell-based; details: read-out: Assay C (IC50)
Btk [2] = target: T1, Btk; test: Btk PBMC IC50 Cell Assay (anti-IgM-induced CD69 expression on B cells); format: cell-based; details: anti-IgM-induced CD69 expression on CD19 positive cells in human PBMCs;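 also: freshly isolated human PBMCs, IC50 from concentration-response of the share of CD19+ cells expressing CD69 after anti-IgM BCR stimulation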

full-length human BTK, sequence (Q06187 whole entry): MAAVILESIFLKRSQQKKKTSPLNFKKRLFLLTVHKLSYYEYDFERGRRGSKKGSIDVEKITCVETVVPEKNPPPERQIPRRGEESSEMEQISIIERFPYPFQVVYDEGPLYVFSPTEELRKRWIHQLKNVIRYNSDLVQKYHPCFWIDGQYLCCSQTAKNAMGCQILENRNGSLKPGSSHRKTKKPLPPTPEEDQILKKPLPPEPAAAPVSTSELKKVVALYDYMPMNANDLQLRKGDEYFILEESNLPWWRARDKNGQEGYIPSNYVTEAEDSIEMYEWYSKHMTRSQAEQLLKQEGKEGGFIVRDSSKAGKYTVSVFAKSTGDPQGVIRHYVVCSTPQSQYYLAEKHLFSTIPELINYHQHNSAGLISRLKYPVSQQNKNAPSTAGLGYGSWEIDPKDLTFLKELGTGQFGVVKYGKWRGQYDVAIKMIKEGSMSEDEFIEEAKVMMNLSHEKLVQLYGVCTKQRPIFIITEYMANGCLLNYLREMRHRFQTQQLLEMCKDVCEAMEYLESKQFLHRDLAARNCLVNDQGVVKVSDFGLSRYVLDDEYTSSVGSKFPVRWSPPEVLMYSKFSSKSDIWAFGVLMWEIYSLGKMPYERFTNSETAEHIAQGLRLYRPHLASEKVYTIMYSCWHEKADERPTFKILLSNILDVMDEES
T1 sequence (Q06187 whole entry): as above

| Compound | IC50 (full-length human BTK) [nM] | IC50 (Btk [1]) [nM] | IC50 (Btk [2]) [nM] |
| --- | --- | --- | --- |
| Cc1nn(C2CCOCC2)c(C)c1-c1nc2c(-c3ccc4c(c3)CCCC4NC(=O)c3nc(C(C)(C)C)no3)ccnc2[nH]1 (stereo not drawn) [Compound 140, 3-tert-Butyl-[1,2,4]oxadiazole-5-carboxylic acid (6-{2-[3,5-dimethyl-1-(tetrahydro-pyran-4-yl)-1H-pyrazol-4-yl]-3H-imidazo[4,5-b]pyridin-7-yl}-1,2,3,4-tetrahydro-naphthalen-1-yl)-amide] | < 1 | > 100 | 10 to 100 |
| Cc1nn(C)c(C)c1-c1nc2c(-c3ccc4c(c3)CCCC[C@H]4NC(=O)c3nc(C(C)(C)C)no3)ccnc2[nH]1 [Compound 142, 3-tert-Butyl-[1,2,4]oxadiazole-5-carboxylic acid {(R)-2-[2-(1,3,5-trimethyl-1H-pyrazol-4-yl)-3H-imidazo[4,5-b]pyridin-7-yl]-6,7,8,9-tetrahydro-5H-benzocyclohepten-5-yl}-amide] | < 1 | 1 to 10 | 1 to 10 |
| Cc1nn(C)c(C)c1-c1nc2c(-c3ccc4c(c3)CCCCC4NC(=O)c3nc(C4(C)CC4)no3)ccnc2[nH]1 (stereo not drawn) [Compound 143, 3-(1-Methyl-cyclopropyl)-[1,2,4]oxadiazole-5-carboxylic acid {2-[2-(1,3,5-trimethyl-1H-pyrazol-4-yl)-3H-imidazo[4,5-b]pyridin-7-yl]-6,7,8,9-tetrahydro-5H-benzocyclohepten-5-yl}-amide] | < 1 | 10 to 100 | 1 to 10 |
| Cc1c(-c2nc3c(-c4ccc5c(c4)CCCC5NC(=O)c4nc(C5(C)CC5)no4)ccnc3[nH]2)cnn1C1CCOCC1 (stereo not drawn) [Compound 148, 3-(1-Methyl-cyclopropyl)-[1,2,4]oxadiazole-5-carboxylic acid (6-{2-[5-methyl-1-(tetrahydro-pyran-4-yl)-1H-pyrazol-4-yl]-3H-imidazo[4,5-b]pyridin-7-yl}-1,2,3,4-tetrahydro-naphthalen-1-yl)-amide] | < 1 | 10 to 100 | 10 to 100 |
| Cc1c(-c2nc3c(-c4ccc5c(c4)CCCC5NC(=O)c4noc(C(C)(C)C)n4)ccnc3[nH]2)cnn1C(C)C (stereo not drawn) [Compound 149, 5-tert-Butyl-[1,2,4]oxadiazole-3-carboxylic acid {6-[2-(1-isopropyl-5-methyl-1H-pyrazol-4-yl)-3H-imidazo[4,5-b]pyridin-7-yl]-1,2,3,4-tetrahydro-naphthalen-1-yl}-amide] | < 1 | 10 to 100 | 1 to 10 |
| Cc1c(-c2nc3c(-c4ccc5c(c4)CCCC5NC(=O)c4noc(C(C)(C)C)n4)ccnc3[nH]2)cnn1C1CCOCC1 (stereo not drawn) [Compound 150, 5-tert-Butyl-[1,2,4]oxadiazole-3-carboxylic acid (6-{2-[5-methyl-1-(tetrahydro-pyran-4-yl)-1H-pyrazol-4-yl]-3H-imidazo[4,5-b]pyridin-7-yl}-1,2,3,4-tetrahydro-naphthalen-1-yl)-amide] | < 1 | 1 to 10 | 1 to 10 |
| Cc1cc(-c2nc3c(-c4ccc5c(c4)CCCC[C@H]5NC(=O)c4nnc(C(C)(C)C)o4)ccnc3[nH]2)nn1C [Compound 153, 5-tert-Butyl-[1,3,4]oxadiazole-2-carboxylic acid {(R)-2-[2-(1,5-dimethyl-1H-pyrazol-3-yl)-3H-imidazo[4,5-b]pyridin-7-yl]-6,7,8,9-tetrahydro-5H-benzocyclohepten-5-yl}-amide] | < 1 | 1 to 10 | 1 to 10 |
| Cc1c(-c2nc3c(-c4ccc5c(c4)CCC[C@@H]5NC(=O)c4nc(C5(C)CC5)no4)ccnc3[nH]2)cnn1C1CCOCC1 [Compound 155, 3-(1-Methyl-cyclopropyl)-[1,2,4]oxadiazole-5-carboxylic acid ((S)-6-{2-[5-methyl-1-(tetrahydro-pyran-4-yl)-1H-pyrazol-4-yl]-3H-imidazo[4,5-b]pyridin-7-yl}-4-yl]-3H-imidazo[4,5-1,2,3,4-tetrahydro-naphthalen-1-yl)-amide] | < 1 | 10 to 100 | 1 to 10 |
| Cc1c(-c2nc3c(-c4ccc5c(c4)CCC[C@@H]5NC(=O)c4noc(C(C)(C)C)n4)ccnc3[nH]2)cnn1C1CCOCC1 [Compound 157, 5-tert-Butyl-[1,2,4]oxadiazole-3-carboxylic acid ((S)-6-{2-[5-methyl-1-(tetrahydro-pyran-4-yl)-1H-pyrazol-4-yl]-3H-imidazo[4,5-b]pyridin-7-yl}-1,2,3,4-tetrahydro-naphthalen-1-yl)-amide] | < 1 | 1 to 10 | 1 to 10 |
| Cc1c(-c2nc3c(-c4ccc5c(c4)CCCC[C@H]5NC(=O)c4nc(C(C)(C)C)no4)ccnc3[nH]2)cnn1C(C)C [Compound 160, 3-tert-Butyl-[1,2,4]oxadiazole-5-carboxylic acid {(R)-2-[2-(1-isopropyl-5-methyl-1H-pyrazol-4-yl)-3H-imidazo[4,5-b]pyridin-7-yl]-6,7,8,9-tetrahydro-5H-benzocyclohepten-5-yl}-amide] | < 1 | 1 to 10 | 1 to 10 |
| Cc1c(-c2nc3c(-c4ccc5c(c4)CCC[C@H]5NC(=O)c4noc(C(C)(C)C)n4)ccnc3[nH]2)cnn1C(C)C [Compound 164, 5-tert-Butyl-[1,2,4]oxadiazole-3-carboxylic acid {(R)-6-[2-(1-isopropyl-5-methyl-1H-pyrazol-4-yl)-3H-imidazo[4,5-b]pyridin-7-yl]-1,2,3,4-tetrahydro-naphthalen-1-yl}-amide] | 1 to 10 | > 100 | 1 to 10 |
| Cc1c(-c2nc3c(-c4ccc5c(c4)CCC[C@@H]5NC(=O)c4noc(C(C)(C)C)n4)ccnc3[nH]2)cnn1C(C)C [Compound 165, 5-tert-Butyl-[1,2,4]oxadiazole-3-carboxylic acid {(S)-6-[2-(1-isopropyl-5-methyl-1H-pyrazol-4-yl)-3H-imidazo[4,5-b]pyridin-7-yl]-1,2,3,4-tetrahydro-naphthalen-1-yl}-amide] | < 1 | 10 to 100 | 1 to 10 |
